Results as given in US20210002725A1, “METHODS FOR THE DIAGNOSIS OF METABOLIC DISORDERS USING EPIMETABOLIC SHIFTERS, MULTIDIMENSIONAL INTRACELLULAR MOLECULES, OR ENVIRONMENTAL INFLUENCES” (Berg LLC, priority 2009, published 2021).

Experiments:
[1] = system: SK-MEL-28 mitochondria; test: LC-MS/MS quantification of Q10 and Q10H2 in mitochondrial enriched samples; assay type: cell-based; settings: for Peak Area Q10: 20% injection
Description: Ten μl of each sample was injected.

[2] = system: HK-2 cells; test: Diabetes PCR array in cell model for diabetes; assay type: cell-based, human
Description: The HK-2 and HASMC cells are normally maintained in culture at 5.5 mM glucose, which is a concentration that corresponds to a range considered normal in human blood. However, in order to simulate a diabetic environment, both cell lines were subsequently maintained at 22 mM glucose, which corresponds to the range observed in human blood associated with chronic hyperglycemia. The cells were subsequently allowed to propagate over 3 passages so that the intracellular regulation processes were functionally adapted to mimic a diabetic state. The choice of cell line was based on the physiologic influence of diabetes on renal dysfunction and progression to end-stage renal disease (ESRD) in addition to the progressive pathophysiology of a compromised cardiovascular function.
The Diabetes PCR array (SABiosciences) offers a screen for 84 genes simultaneously.
A stringent analysis of the Real time PCR data of the HK-2 samples on the Diabetes Arrays (Cat #PAHS-023E, SABiosciences Frederick Md.) was made to exclude all results where gene regulation was not at least a two-fold regulation over HK-2 normal untreated cells with a p value of less than 0.05.

[3] = system: SCC cells; test: Real-time PCR Diabetes Array; assay type: cell-based; settings: 100 μM
Source text: The control cells were untreated cells.

[4] = system: ATP Citrate Lyase (ACL); test: Western blot of ATP Citrate Lyase levels in cells treated with Coenzyme Q10; assay type: cell-based, human; settings: for ATP Citrate Lysase band Normalized Intensity: 48 h
Description: The whole cell pellets were resuspended one at a time in 1 mL of C7 buffer and transferred to labeled 15 mL tubes. The samples were then sonicated in the cold room on ice using 6 sonic pulses with the setting at #14. The samples were spun for a short time to 2500 g after sonication and the samples transferred to 2 ml tubes. The pH was verified of each sample (pH should be 9.0) using the foam remaining in the […] sample tubes.
After transfer each of the blots was placed in between 2 Whatman Filter papers and dried for 15-20 minutes. After drying the blots were labeled with the date, the type of samples and either blot 1 or blot 2 using a HB pencil. The molecular weight markers were outlined with the pencil and with single lines for the blue and a doublet for the colored markers. The blots were activated with methanol for 5 seconds, washed with water for 5 minutes, and TBST for 15 minutes. The blots were blocked for 1 hour with 5% blocking reagent in TBS-T at room temperature and then washed 3 times with TBS-T (1×-15′; 2×5′ each). Blot 1 was probed with the primary antibody for IDH1 (Cell Signaling #3997) in TBST with 5% BSA (at 1:1000 dilutions) and blot 2 with the rabbit polyclonal antibody for ATP Citrate Lyase in 5% BSA (Cell Signaling #4332) at 1:1000 dilution by incubation overnight at 4 deg C. with shaking. After the overnight incubation with primary antibodies, the blots were washed 3 times with TBS-T (1×-15′; 2×5′ each) and probed with the secondary antibody (antirabbit; 1:10,000 dilution) for 1 hon the orbital tilting shaker at room temperature. After 1 h of incubation with secondary antibodies, the blots were washed 3 times with TBS-T (1×-15′; 2×5′ each) and then incubated with ECF reagent for 5 mins and then each blot scanned with 5100 Fuji Laser scanner at 25 uM resolution, 16 bit, green laser, at 400V and at 500 V.
The samples were processed and run on a 4-12% Bis-Tris Novex NuPAGE gel as described above. The gels were run, transferred and stained essentially as described above.
The Isocitrate dehydrogenase blot was stripped by incubating for 30 minutes with methanol, followed by two 10 minute washes with TBS-T, then 30 minutes of incubation with stripping buffer at 50 deg C., and followed by two washes with 100 ml or more of TBS-T for 30′ each. The blot was scanned in laser scanner to check for complete stripping. The blot was activated with methanol for 5 seconds, washed with water for 5 minutes, and TBST for 15 minutes. The blot was blocked for 1 hour with 5% blocking reagent in TBS-T at room temperature and then washed 3 times with TBS-T (1×-15′; 2×5′ each). This was then probed with the rabbit polyclonal antibody for ATP Citrate Lyase in 5% BSA (Cell Signaling #4332) at 1:1000 dilution overnight at 4 deg C. with shaking. After the overnight incubation with primary antibody for ATP Citrate Lyase, the membrane was washed 3 times with TBS-T (1×-15′; 2×5′ each) and probed with the secondary antibody (antirabbit; 1:10,000 dilution) for 1 h on the orbital tilting shaker at room temperature. After 1 h of incubation with secondary antibodies, the blot was washed 3 times with TBS-T (1×-15′; 2×5′ each) and then incubated with ECF reagent for 5 minutes and then each blot scanned with 5100 Fuji Laser scanner at 25 uM resolution, 16 bit, green laser, at 400V and at 500 V.
In this experiment (western blot experiment 3), and in all of the experiments described below in this Example (i.e., western blot experiments 4 through 9), the cells were additionally treated with either 5 mM glucose (“5G”) or 22 mM glucose (“22G”). The samples derived from the cells were processed and run on a 4-12% Bis-Tris Novex NuPAGE gel as described above. The gels were run, transferred and stained essentially as described above.
The levels of IDH1, ATP citrate lyase and actin levels were determined by probing the blots with primary antibodies for IDH1, ATP citrate lyase and actin, essentially as described above.

COC1=C(OC)C(=O)C(C/C=C(\C)CC/C=C(\C)CC/C=C(\C)CC/C=C(\C)CC/C=C(\C)CC/C=C(\C)CC/C=C(\C)CC/C=C(\C)CC/C=C(\C)CCC=C(C)C)=C(C)C1=O [Q10, Coenzyme Q10]
increase in mitochondrial Q10 levels ([1]; 100 μM Q10, 19 hours, vs untreated): ~3 fold
increase in mitochondrial Q10H2 levels ([1]; 100 μM Q10, 48 hour sample, near detection limit): 3 fold
Peak Area Q10 ([1]; 100 μM Q10 in the media, 6 hr): 25427
Peak Area Q10 ([1]; 100 μM Q10 in the media, 19 hr): 59164
Q10H2 (reduced form) in mitochondrial enriched sample ([1]; 100 μM Q10 in the media, 48 hr): 0.28 ng/Sample
Peak Area Q10 ([1]; 100 μM Q10 in the media, 48 hr): 164496
form of Q10 in mitochondria (oxidized vs reduced) ([1]; exogenous addition of Q10 to the media): maintained in the supplied oxidized form
CEACAM1 RNA transcript ([2]; HK2(H) cells at 22 mM glucose, particularly 100 μM Coenzyme Q10): highly upregulated
insulin receptor (INSR) expression ([2]; diabetic HK-2 cells): increase in expression
TNFRSF1A gene Regulation ([3]; at 6 and 24 hours): Down regulated at 6 and 24
G6PD gene Regulation ([3]; at 6 hours): Down regulated at 6 hours.
ICAM1 gene Regulation ([3]; at 6 hours): Down regulated at 6 hours.
INPPL1 gene Regulation ([3]; at 6 hours): Down regulated at 6 hours.
NOS3 gene Regulation ([3]; at 6 hours): Down regulated at 6 hours.
PIK3CD gene Regulation ([3]; at 6 hours): Down regulated at 6 hours.
PPARA gene Regulation ([3]; at 6 hours): Down regulated at 6 hours.
PYGL gene Regulation ([3]; at 6 hours): Down regulated at 6 hours.
SREBF1 gene Regulation ([3]; at 6 hours): Down regulated at 6 hours.
STXBP2 gene Regulation ([3]; at 6 hours): Down regulated at 6 hours.
TNF gene Regulation ([3]; at 6 hours): Down regulated at 6 hours.
VEGFA gene Regulation ([3]; at 6 hours): Down regulated at 6 hours.
ATP Citrate Lysase band Normalized Intensity ([4]; HASMC (Table 34), 5 g, 50 μM): 23341
ATP Citrate Lysase band Normalized Intensity ([4]; HASMC (Table 34), 5 g, 100 μM): 25544
ATP Citrate Lysase band Normalized Intensity ([4]; HASMC (Table 34), 22 G, 50 μM): 21439
ATP Citrate Lysase band Normalized Intensity ([4]; HASMC (Table 34), 22 G, 100 μM): 19491
ATP Citrate Lysase band Normalized Intensity ([4]; HASMC (Table 35), 5 g, 50 μM): 12056
ATP Citrate Lysase band Normalized Intensity ([4]; HASMC (Table 35), 5 g, 100 μM): 15265
ATP Citrate Lysase band Normalized Intensity ([4]; HASMC (Table 35), 22 G, 50 μM): 15857
ATP Citrate Lysase band Normalized Intensity ([4]; HASMC (Table 35), 22 G, 100 μM): 13892
ATPCL Average Normalized Intensity ([4]; HDFa, 50 μM): ~7500
ATPCL Average Normalized Intensity ([4]; HDFa, 100 μM): ~25000
ATP Citrate Lysase band Normalized Intensity ([4]; HepG2, 5 g, 50 μM): 24106
ATP Citrate Lysase band Normalized Intensity ([4]; HepG2, 5 g, 100 μM): 22463
ATP Citrate Lysase band Normalized Intensity ([4]; HepG2, 22 G, 50 μM): 31235
ATP Citrate Lysase band Normalized Intensity ([4]; HepG2, 22 G, 100 μM): 50588
ATPCL Average Normalized Intensity ([4]; MCF-7, 50 μM): ~7500
ATP Citrate Lysase band Normalized Intensity ([4]; PACA2, 5 g, 50 μM): 8027
ATP Citrate Lysase band Normalized Intensity ([4]; PACA2, 5 g, 100 μM): 4942
ATP Citrate Lysase band Normalized Intensity ([4]; PACA2, 22 G, 50 μM): 9537
ATP Citrate Lysase band Normalized Intensity ([4]; PACA2, 22 G, 100 μM): 14901
